Columns and labels:
[1] = MRI imaging experiments in rats; type: in vivo, Sprague Dawley rat; conditions: rat, intramuscular, 0.05-0.1 mmol Gd/kg
Procedure: Injectable solutions were first prepared (0.5M) by dissolving the appropriate amount of each complex in 2 mL of deionized water. The pH of the solutions were then adjusted to 7.4 using 1M HCl or NaOH as needed. The total Gd content of each solution was then determined by ICP analysis.
An anesthetized Sprague Dawley rat was injected intramuscularly with one of the metal solutions described above at a dose of 0.05-0.1 mmol Gd/kg body weight. Images were then taken at various time intervals and compared with a non-injected control at time 0.

[2] = in vivo; cited from earlier work
[3] = compared with Magnevist; cited from earlier work
[4] = biodistribution, percent of injected dose in tissues of rats; type: in vivo, Sprague Dawley rats; conditions: rat, tail vein; for % injected dose, Blood: blood assumed 7% of body weight; for % injected dose, Muscle: muscle assumed 43% of body weight; for % injected dose, Bone: percent dose in femur × 25
Procedure: Sprague Dawley rats were allowed to acclimate for five days then injected with 100 μL of the complex solution via a tail vein. The rats weighed between 150 and 200 g at the time of injection. […] The amount of radioactivity in each tissue was determined by counting in a NaI scintillation counter coupled to a multichannel analyzer. The counts were compared to the counts in 100 μL standards in order to determine the percentage of the dose in each tissue or organ.
The percent dose in blood was estimated assuming blood to be 7% of the body weight. The percent dose in bone was estimated by multiplying the percent dose in the femur by 25. The percent dose in muscle was estimated assuming muscle to be 43% of the body weight. […]

[5] = percent metal as a complex (Sephadex column, ^153 Sm tracer); type: physicochemical; conditions: 1:1 ligand/metal, SmCl3 3×10^-4 M in 0.01N HCl
Procedure: A stock ^159 GdCl3 (or ^153 SmCl3) solution was prepared by adding 2 μL of 3×10^-4 M ^159 GdCl3 in 0.1N HCl to 2 mL of a 3×10^-4 M GdCl3 carrier solution. Appropriate ligand solutions were then prepared in deionized water. The 1:1 ligand/metal complexes were then prepared by combining the ligands (dissolved in 100-500 μL of deionized water) with 2 mL of the stock ^159 GdCl3 solution, followed by through mixing to give an acidic solution (pH=2). The pH of the solution was then raised to 7.0 using 0.1N NaOH. The percent metal as a complex was then determined by passing a sample of the complex solution through a Sephadex™ G-50 column, eluting with 4:1 saline ([…]) and collecting 2×3 mL fractions. The amount of radioactivity in the combined elutions was then compared with that left on the resin (non-complexed metal is retained on the resin). […]
A solution of the ligand of Example 1 was prepared by dissolving 3.8 mg of ligand/0.517 mL of deionized water (pH=2). […] After thorough mixing, the percent metal as a complex was determined by passing a sample of the complex solution through a Sephadex™ column, eluting with 4:1 saline (0.85% NaCl/NH4 OH), and collecting 2×3 mL fractions. The amount of radioactivity in the combined elutions was then compared with that left on the resin. […] By this method complexation was determined to be 98%. […]

In the case of `O=P(O)(O)CN1CCN(CP(=O)(O)O)Cc2cccc(n2)CN(CP(=O)(O)O)CC1.[Gd]` [Gd-PCTMP], the “MR image enhancement, kidney” value [1] is reported as “kidney enhancement” and the “bone localization in MR image” value [1] is reported as “bone localization in the shoulder, spine and sternum”.

For `CNC[C@H](O)[C@@H](O)[C@H](O)[C@H](O)CO.CNC[C@H](O)[C@@H](O)[C@H](O)[C@H](O)CO.O=C([O-])CN(CCN(CC(=O)[O-])CC(=O)O)CCN(CC(=O)[O-])CC(=O)O.[Gd+3]` [MAGNEVIST, complex of gadolinium with diethylenetriaminepentaacetic acid], the distribution [2] is listed as “freely distributes in extracellular fluid” and the elimination [2] is listed as “efficient elimination through the renal system”.

In the case of `CC(O)CN1CCN(CC(=O)[O-])CCN(CC(=O)[O-])CCN(CC(=O)[O-])CC1.[Gd+3]` (centres unmarked) [PROHANCE, [1,4,7-tris(carboxymethyl)-10-(2-hydroxypropyl)-1,4,7,10-tetraazacyclododecanato]-gadolinium], the distribution [2] is given as “freely distributes in extracellular fluid”, the elimination [2] is given as “efficient elimination through the renal system” and the side effects [3] is given as “fewer side effects than Magnevist”.

For `O=C(O)CN1CCN(CP(=O)(O)O)CCN(CC(=O)O)Cc2cccc(n2)C1.[153Sm]` [^153 Sm-PC2A1P], the “% injected dose, Brain” value ([4]; 2 hours post injection) was 0.01%, the “% injected dose, Heart” value ([4]; 2 hours post injection) was 0.04% and the “% injected dose, Kidney” value ([4]; 2 hours post injection) was 0.93%. The “% injected dose, Large Intestine” value ([4]; 2 hours post injection) was 0.12%, the “% injected dose, Liver” value ([4]; 2 hours post injection) was 1.46% and the “% injected dose, Lung” value ([4]; 2 hours post injection) was 0.06%. The “% injected dose, Small Intestine” value ([4]; 2 hours post injection) was 13.10%, the “% injected dose, Spleen” value ([4]; 2 hours post injection) was 0.02% and the “% injected dose, Stomach” value ([4]; 2 hours post injection) was 0.25%. For the same compound, the “% injected dose, Blood” value ([4]; 2 hours post injection) was 0.36%, the “% injected dose, Muscle” value ([4]; 2 hours post injection) was 1.00% and the “% injected dose, Bone” value ([4]; 2 hours post injection) was 47.98%.

With `CCCCOP(=O)([O-])CN1CCN(CP(=O)([O-])OCCCC)Cc2cccc(n2)CN(CP(=O)([O-])OCCCC)CC1.[153Sm+3]` [^153 Sm-PMBHE] the “% injected dose, Brain” value ([4]; 2 hours post injection) was 0.00%, the “% injected dose, Heart” value ([4]; 2 hours post injection) was 0.02% and the “% injected dose, Kidney” value ([4]; 2 hours post injection) was 0.43%. The “% injected dose, Large Intestine” value ([4]; 2 hours post injection) was 0.77%, the “% injected dose, Liver” value ([4]; 2 hours post injection) was 2.70% and the “% injected dose, Lung” value ([4]; 2 hours post injection) was 0.04%. The “% injected dose, Small Intestine” value ([4]; 2 hours post injection) was 57.89%, the “% injected dose, Spleen” value ([4]; 2 hours post injection) was 0.05% and the “% injected dose, Stomach” value ([4]; 2 hours post injection) was 0.08%. For the same compound, the “% injected dose, Blood” value ([4]; 2 hours post injection) was 0.14%, the “% injected dose, Muscle” value ([4]; 2 hours post injection) was 1.09% and the “% injected dose, Bone” value ([4]; 2 hours post injection) was 3.73%.

In the case of `CCCOP(=O)([O-])CN1CCN(CP(=O)([O-])OCCC)Cc2cccc(n2)CN(CP(=O)([O-])OCCC)CC1.[153Sm+3]` [^153 Sm-PMPHE], the “% injected dose, Brain” value ([4]; 2 hours post injection) is reported as 0.00%, the “% injected dose, Heart” value ([4]; 2 hours post injection) is reported as 0.08% and the “% injected dose, Kidney” value ([4]; 2 hours post injection) is reported as 1.55%. For the same compound, the “% injected dose, Large Intestine” value ([4]; 2 hours post injection) was 2.17%, the “% injected dose, Liver” value ([4]; 2 hours post injection) was 4.14% and the “% injected dose, Lung” value ([4]; 2 hours post injection) was 0.12%. The “% injected dose, Small Intestine” value ([4]; 2 hours post injection) was 10.71%, the “% injected dose, Spleen” value ([4]; 2 hours post injection) was 0.05% and the “% injected dose, Stomach” value ([4]; 2 hours post injection) was 0.44%. For the same compound, the “% injected dose, Blood” value ([4]; 2 hours post injection) was 0.25%, the “% injected dose, Muscle” value ([4]; 2 hours post injection) was 1.19% and the “% injected dose, Bone” value ([4]; 2 hours post injection) was 10.86%.

With “^153 Sm-3,6,9,15-tetraazabicyclo[9.3.1]pentadeca-1(15),11,13-triene-3,6,9-trimethylenephosphonic acid [^153 Sm-PCTMP]” the “% injected dose, Kidney” value ([4]; 30 min (general procedure)) was 1.42%, the “% injected dose, Liver” value ([4]; 30 min (general procedure)) was 0.99% and the “% injected dose, Spleen” value ([4]; 30 min (general procedure)) was 0.07%. The “% injected dose, Blood” value ([4]; 30 min (general procedure)) was 6.27%, the “% injected dose, Muscle” value ([4]; 30 min (general procedure)) was 4.77% and the “% injected dose, Bone” value ([4]; 30 min (general procedure)) was 34.87%. For the same compound, the “complexation (percent metal as a complex)” value [5] was 98%.
